Laboratory results from US12144886B2, “Perineural administration of resiniferatoxin for treatment of maladaptive pain” (Sorrento Therapeutics, Inc., priority 2018, dated 2024).

System: declawed cat with maladaptive pain
Assay: Feline Musculoskeletal Pain Index (FMPI) in a declawed cat after perineural RTX nerve blocks
Type: in vivo
Design: key to FMPI Q5 (jumping down) / FMPI Q6 (climbing upstairs) / FMPI Q7 (going down stairs) / FMPI Q8 (playing with/chasing toys) / FMPI Q9 (playing and interacting with other pets) / FMPI Q10 (getting up from a resting position) / FMPI Q11 (lying or sitting down) / FMPI Q12 (stretching) / FMPI Q13 (grooming) / FMPI Q14 (interacting with the owner) / FMPI Q15 (being touched or handled) / FMPI Q16 (eating) / FMPI Q17 (using the litter box) / FMPI Q1 (walking) / FMPI Q2 (running) / FMPI Q3 (jumping up) / FMPI Q4 (jumping up to kitchen counter height): 4 = normal; 3 = near normal; 2 = Moderately worse than normal; 1 = Barely, or with great effort; 0 = not at all
Conditions: one cat, 2.5 μg/forelimb perineural
Procedure: Each dose of 5 μg/cat or 2.5 μg/forelimb will be formulated in 1 cc insulin syringes by diluting 0.1 mL: (2.5 μg) of RTX in 0.9 mL sterile saline for injection immediately before use. For treatment, a total of 1.0 mL (2.5 μg) will be injected as nerve blocks, distributed equally (0.25 ml per injection site) over 4 injection sites for each forelimb.
Four point nerve blocks are performed by injection of 0.25 mL RTX each into the 1) superficial branches of the radial nerve, 2) dorsal branch of the ulnar nerve, 3) median nerve and superficial branch of the palmar branch of the ulnar nerve, and 4) deep branch of the palmar branch of the ulnar nerve. The nerve blocks for each forelimb are performed following a published technique for locoregional block of the manus in cats (Enomoto et al. (2016) J. Feline Med. Surg. 18:838-845). To block the superficial branches of the radial nerve (RSbr nn), the limb is positioned with the dorsal aspect facing upwards and the carpus in 180° of extension. A 25 G×⅝-inch needle is inserted subcutaneously (SC) from a point at the center of the limb at the level of the antebrachiocarpal joint. The needle is advanced approximately 10 mm SC at a 10-20° angle to the long axis of the limb with the bevel facing up. Once the tip of the needle is 3-5 mm from the confluence point of the accessory cephalic and cephalic veins, the injection is made (0.25 mL). To block the dorsal branch of the ulnar nerve (UDbr n), the limb is positioned with the lateral aspect facing upwards. A point is located lateral to and at the same level as the accessory carpal bone (ACb), positioned between the ACb and the styloid process of the ulna (SpU). A 25 G×⅝-inch needle is inserted SC distal to proximal, so the tip lies at the midpoint of the groove formed between ACb and the SpU, and then the injection is made (0.25 mL). To block the median nerve (M n) and superficial branch of the palmar branch of the ulnar nerve (UPbrS n), the limb is positioned with the palmar aspect facing upwards. A 25 G×⅝-inch needle is inserted SC at the distal border of the carpal pad and approximately 5 mm lateral to it, perpendicular to the long axis of the metacarpus, with the bevel facing up. The needle is inserted SC until the point is located two-thirds of the distance from the lateral aspect of the limb to the medial aspect. Two-thirds of the injectate volume is deposited at this point and the remaining volume is injected while the needle is withdrawn (0.25 mL). Gentle massage is applied to the injected volume under the skin for 5 seconds. To block the deep branch of the palmar branch of the ulnar nerve (UPbrDp n), the limb is positioned with the palmar aspect facing upwards. A 25 G×⅝-inch needle is inserted almost perpendicular to the ACb in a mediolateral direction such that the needle contacts the medial palmar aspect of the midpoint of the ACb with the bevel facing up. The needle is then redirected dorsally and advanced on the medial side of the ACb 2-3 mm until it penetrates the flexor retinaculum, and then the injection is made (0.25 mL).
The effectiveness of the injection with RTX is assessed at days 3, 7, and 14 using owner videography for qualitative assessment (jumping, manipulation of the limb), and cats will also be evaluated using the Feline Musculoskeletal Pain Index (FMPI) and the Client Specific Outcome Measure (CSOM).
For FMPI, cats are scored for 17 attributes designated Q1-Q17 using a scale of 0-4, where 0=not at all, 1=barely or with great effort, 2=moderately worse than normal, 3=near normal, and 4=normal. The total FMPI score is the sum of scores for each question. Higher totals indicate less impairment with a possible range of (0-68). For analysis, total score or percent possible can be used. […]

With `C=C(C)[C@]12C[C@@H](C)[C@@]34O[C@](Cc5ccccc5)(O[C@@H]1[C@@H]3C=C(COC(=O)Cc1ccc(O)c(OC)c1)C[C@]1(O)C(=O)C(C)=C[C@@H]41)O2` [RTX, resiniferatoxin] the FMPI % poss (Day 0 (baseline)) was 0.69, the “FMPI Q1 (walking)” value (Day 0 (baseline)) was 2 and the “FMPI Q2 (running)” value (Day 0 (baseline)) was 1. The “FMPI Q3 (jumping up)” value (Day 0 (baseline)) was 3, the “FMPI Q4 (jumping up to kitchen counter height)” value (shortened to “FMPI Q4”) (Day 0 (baseline)) was 0 and the “FMPI Q5 (jumping down)” value (Day 0 (baseline)) was 2. The “FMPI Q6 (climbing upstairs)” value (Day 0 (baseline)) was 4, the “FMPI Q7 (going down stairs)” value (Day 0 (baseline)) was 4 and the “FMPI Q8 (playing with/chasing toys)” value (Day 0 (baseline)) was 3. For the same compound, the “FMPI Q9 (playing and interacting with other pets)” value (shortened to “FMPI Q9”) (Day 0 (baseline)) was 2, the “FMPI Q10 (getting up from a resting position)” value (shortened to “FMPI Q10”) (Day 0 (baseline)) was 4 and the “FMPI Q11 (lying or sitting down)” value (Day 0 (baseline)) was 4. The “FMPI Q12 (stretching)” value (Day 0 (baseline)) was 3, the “FMPI Q13 (grooming)” value (Day 0 (baseline)) was 3 and the “FMPI Q14 (interacting with the owner)” value (Day 0 (baseline)) was 3. For the same compound, the “FMPI Q15 (being touched or handled)” value (Day 0 (baseline)) was 2, the “FMPI Q16 (eating)” value (Day 0 (baseline)) was 4 and the “FMPI Q17 (using the litter box)” value (Day 0 (baseline)) was 3. For the same compound, the “FMPI Total score (possible range 0-68)” value (Day 0 (baseline)) was 47, the FMPI % poss (Day 3) was 0.71 and the “FMPI Q1 (walking)” value (Day 3) was 3. The “FMPI Q2 (running)” value (Day 3) was 2, the “FMPI Q3 (jumping up)” value (Day 3) was 3 and the “FMPI Q4” value (Day 3) was 2. The “FMPI Q5 (jumping down)” value (Day 3) was 3, the “FMPI Q6 (climbing upstairs)” value (Day 3) was “*3” and the “FMPI Q7 (going down stairs)” value (Day 3) was “*3”. For the same compound, the “FMPI Q8 (playing with/chasing toys)” value (Day 3) was 3, the “FMPI Q9” value (Day 3) was “*1” and the “FMPI Q10” value (Day 3) was 4. The “FMPI Q11 (lying or sitting down)” value (Day 3) was 4, the “FMPI Q12 (stretching)” value (Day 3) was “*2” and the “FMPI Q13 (grooming)” value (Day 3) was 3. The “FMPI Q14 (interacting with the owner)” value (Day 3) was 3, the “FMPI Q15 (being touched or handled)” value (Day 3) was 2 and the “FMPI Q16 (eating)” value (Day 3) was 4. For the same compound, the “FMPI Q17 (using the litter box)” value (Day 3) was 3, the “FMPI Total score (possible range 0-68)” value (Day 3) was 48 and the FMPI % poss (Day 7) was 0.81. The “FMPI Q1 (walking)” value (Day 7) was 3, the “FMPI Q2 (running)” value (Day 7) was 3 and the “FMPI Q3 (jumping up)” value (Day 7) was 3. The “FMPI Q4” value (Day 7) was 3, the “FMPI Q5 (jumping down)” value (Day 7) was 3 and the “FMPI Q6 (climbing upstairs)” value (Day 7) was 4. The “FMPI Q7 (going down stairs)” value (Day 7) was 4, the “FMPI Q8 (playing with/chasing toys)” value (Day 7) was 3 and the “FMPI Q9” value (Day 7) was 2. The “FMPI Q10” value (Day 7) was 4, the “FMPI Q11 (lying or sitting down)” value (Day 7) was 4 and the “FMPI Q12 (stretching)” value (Day 7) was 3. For the same compound, the “FMPI Q13 (grooming)” value (Day 7) was 3, the “FMPI Q14 (interacting with the owner)” value (Day 7) was 3 and the “FMPI Q15 (being touched or handled)” value (Day 7) was 3. The “FMPI Q16 (eating)” value (Day 7) was 4, the “FMPI Q17 (using the litter box)” value (Day 7) was 3 and the “FMPI Total score (possible range 0-68)” value (Day 7) was 55. The FMPI % poss (Day 14) was 0.84, the “FMPI Q1 (walking)” value (Day 14) was 3 and the “FMPI Q2 (running)” value (Day 14) was 3. For the same compound, the “FMPI Q3 (jumping up)” value (Day 14) was 4, the “FMPI Q4” value (Day 14) was 3 and the “FMPI Q5 (jumping down)” value (Day 14) was 3. For the same compound, the “FMPI Q6 (climbing upstairs)” value (Day 14) was 4, the “FMPI Q7 (going down stairs)” value (Day 14) was 4 and the “FMPI Q8 (playing with/chasing toys)” value (Day 14) was 3. The “FMPI Q9” value (Day 14) was 3, the “FMPI Q10” value (Day 14) was 4 and the “FMPI Q11 (lying or sitting down)” value (Day 14) was 4. The “FMPI Q12 (stretching)” value (Day 14) was 3, the “FMPI Q13 (grooming)” value (Day 14) was 3 and the “FMPI Q14 (interacting with the owner)” value (Day 14) was 3. The “FMPI Q15 (being touched or handled)” value (Day 14) was 3, the “FMPI Q16 (eating)” value (Day 14) was 4 and the “FMPI Q17 (using the litter box)” value (Day 14) was 3. For the same compound, the “FMPI Total score (possible range 0-68)” value (Day 14) was 57, the FMPI % poss (Screening (baseline)) was 0.69 and the “FMPI Q1 (walking)” value (Screening (baseline)) was 2. For the same compound, the “FMPI Q2 (running)” value (Screening (baseline)) was 1, the “FMPI Q3 (jumping up)” value (Screening (baseline)) was 3 and the “FMPI Q4” value (Screening (baseline)) was 0. The “FMPI Q5 (jumping down)” value (Screening (baseline)) was 2, the “FMPI Q6 (climbing upstairs)” value (Screening (baseline)) was 4 and the “FMPI Q7 (going down stairs)” value (Screening (baseline)) was 4. The “FMPI Q8 (playing with/chasing toys)” value (Screening (baseline)) was 3, the “FMPI Q9” value (Screening (baseline)) was 2 and the “FMPI Q10” value (Screening (baseline)) was 4. The “FMPI Q11 (lying or sitting down)” value (Screening (baseline)) was 4, the “FMPI Q12 (stretching)” value (Screening (baseline)) was 3 and the “FMPI Q13 (grooming)” value (Screening (baseline)) was 3. For the same compound, the “FMPI Q14 (interacting with the owner)” value (Screening (baseline)) was 3, the “FMPI Q15 (being touched or handled)” value (Screening (baseline)) was 2 and the “FMPI Q16 (eating)” value (Screening (baseline)) was 4. The “FMPI Q17 (using the litter box)” value (Screening (baseline)) was 3 and the “FMPI Total score (possible range 0-68)” value (Screening (baseline)) was 47.
